Literature values, collected in patent publication US8603996B2, “Modular aptamer-regulated ribozymes” (California Institute of Technology, priority 2006, dated 2013).

Tested on: theophylline aptamer

O=c1[nH]c(=O)c2[nH]cnc2[nH]1 [xanthine]
binding affinity lower than theophylline: 27 fold
